We go through 1 compound from PMC10145360, “Antiplatelet Aggregation Properties of Cirsilineol: A Novel Inhibitor of Blood Coagulation Factor Xa” (Pharmaceuticals, 2023).

Values joined by “and” are separate entries in the source; they are usually repeats but may differ in a detail not shown here. Equal entries are not always repeated.

Usually Ki stands for the equilibrium dissociation constant of an inhibitor or competing ligand from its target. A high value points to lower affinity.

Test [1] relates to platelet-poor plasma (PPP). As to the kind of experiment: Prothrombin time (PT) after administration to mice. Conditions: administered to mice; data not shown. It is filed as in vivo, mouse. As for the experimental part:
First, the potential cytotoxicity of […] on HUVECs was assessed using the 3-(4,5-dimethylthiazol-2-yl)-2,5-diphenyltetrazolium bromide (MTT) assay. […] The activated partial thromboplastin time (aPTT) and prothrombin time (PT), two coagulation parameters altered by CSL in vitro, were assessed first. We used the direct FXa inhibitor rivaroxaban as a positive control for our experiments. […] In the aPTT experiments, rivaroxaban at 8.38 μM and CSL at 7.23 μM, respectively, doubled the clotting time. Each mouse group (n = 5) received intravenous injections of CSL for 4 consecutive days to validate the in vitro results in an ex vivo experiment. […] In the ex vivo aPTT assays, treatment with CSL at 0.25 mg/kg and rivaroxaban at 0.29 mg/kg, respectively, doubled the clotting time. The average blood volume was determined to be 2 mL based on an estimated circulating blood volume for mice of 72 mL/kg and an average weight of 27 g for each animal used in this investigation. As a result, the estimated concentration of CSL in the peripheral blood after each injection ([…]) was 2.5, 5, 10, or 20 μM, respectively.
Plasma was taken by centrifuging blood (2000× g for 10 min) at room temperature following dimethyl sulfoxide (DMSO) or CSL administration for 1 h to assess PT and aPTT using a thrombotimer (Behnk Elektronik, Norderstedt, Germany). […] Next, the clotting time was measured.

The target in test [2] is T1, Factor Xa (Homo sapiens, UniProt P00742).
T1 construct: Factor Xa; purchased Haematologic Technologies (Essex Junction, VT, USA)
As to the kind of experiment: FXa amidolytic activity and inhibitory constant (chromogenic substrate). It is filed as biochemical. As for the experimental part:
CSL was dissolved in 50 mM Tris buffer, which has a pH of 7.4, and was added to 150 μL of FXa solution (1 U/mL). This mixture was incubated for 1 min at 37 °C. Additionally, 150 μL of S-2222 solution (1.5 mM) was blended, and for 20 min, the changes in absorbance were observed spectrophotometrically at 405 nm. We used the slope of the curve (Vi) and the absorbance–time curve to determine enzyme activity. Equation (1) was used to compute the CSL inhibitory rates:Inhibitory rate (%) = (V0 − Vi)/V0 × 100(1) where Vi and V0 represent the slopes of the samples and the vehicle, respectively.
(§1) Ki values were calculated based on chromogenic substrate experiments. CSL was employed in each assay at a minimum of seven concentrations in duplicate to obtain an inhibition curve. A total of 50 μL of substrate was combined with 25 μL of each chemical solution, inhibitor solution, or blank buffer. Before the plate was allocated into the Labsystems IEMS microtiter plate reader (Cergy Pontoise, France), 25 μL of the enzyme solution was mixed. The plate was allowed for 1 h at 37 °C before analysis. We continuously observed the formation of p-nitroaniline produced when the substrate was hydrolyzed using spectrophotometry at 405 nm. The maximum initial reaction rates were computed as the millioptical density per minute. A Dixon plot of 1/Vmax versus inhibitor concentration was used to fit the curve and determine the Ki values.

Test [3] addresses T2, Plasmin (Homo sapiens, UniProt P00747).
T2 construct: S-2251 for plasmin; purchased Haematologic Technologies (Essex Junction, VT, USA)
As to the kind of experiment: Inhibitory constant, chromogenic substrate assay. It is filed as biochemical. As for the experimental part: as §1

Test [4] concerns the target T3, Protein Ca (Homo sapiens, UniProt P04070).
T3 construct: purchased Haematologic Technologies (Essex Junction, VT, USA)
As to the kind of experiment: Inhibitory constant, chromogenic substrate assay. It is filed as biochemical. As for the experimental part:
as §1

Test [5] deals with T4, tPA (Homo sapiens, UniProt P00750).
T4 construct: purchased Haematologic Technologies (Essex Junction, VT, USA)
Put plainly: Inhibitory constant, chromogenic substrate assay. It is filed as biochemical. As to the method:
as §1

The target in test [6] is T5, α-Thrombin (Homo sapiens, UniProt P00734).
T5 construct: α-Thrombin; purchased Haematologic Technologies (Essex Junction, VT, USA)
As to the kind of experiment: Inhibitory constant, chromogenic substrate assay. It is filed as biochemical. As for the experimental part:
as §1

In test [7] the test system is FX activation by FVIIa on HUVECs. Put plainly: Production of FXa on the surface of TNF-α-stimulated HUVECs. It is filed as cell-based, human. The following applies: pre-incubation 10 min. As to the method:
Figure 5 Effects of CSL on the catalytic activity and production of FXa. […] Plots show the average values of five independent measurements. (B) HUVECs pre-incubated with the indicated concentrations of CSL for 10 min were stimulated with TNF-α (10 ng/mL) for 6 h and incubated with FX (175 nM) and FVIIa (10 nM) with/without anti-tissue factor antibody (25 µg/mL). The production of FXa was characterized as described in the Methods section. (C) PRP was preincubated for 5 min with different concentrations of CSL, Riva, or the vehicle. Platelet aggregation was initiated with FXa (52 µg/mL), and the platelet aggregation was recorded using an aggregometer. Data are shown as mean values ± SD of five independent experiments. * p < 0.05 vs. TNF-α alone (B) or FXa (C). D = 0.2% DMSO, used as the vehicle control.
Confluent HUVEC monolayers developed on 96-well culture plates that were stimulated with TNF-α (10 ng/mL) for 6 h after exposure to the relevant CSL concentration for 10 min. […] The reaction was stopped by adding buffer A supplemented with 10 mM EDTA, and the amount of FXa produced was determined by adding S-2765. Spectrophotometric monitoring of the absorbance over a 2 min period was performed at 405 nm. […]

T1 sequence (P00742 235-488 limits assumed): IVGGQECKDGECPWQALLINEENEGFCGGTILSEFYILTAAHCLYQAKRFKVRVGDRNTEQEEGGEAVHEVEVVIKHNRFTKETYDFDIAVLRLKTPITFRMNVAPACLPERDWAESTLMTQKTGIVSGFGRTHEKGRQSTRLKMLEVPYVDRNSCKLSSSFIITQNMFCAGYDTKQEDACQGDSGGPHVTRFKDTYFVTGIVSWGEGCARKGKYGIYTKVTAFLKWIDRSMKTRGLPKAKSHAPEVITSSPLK
T1 sequence (P00742 41-179 partner limits assumed): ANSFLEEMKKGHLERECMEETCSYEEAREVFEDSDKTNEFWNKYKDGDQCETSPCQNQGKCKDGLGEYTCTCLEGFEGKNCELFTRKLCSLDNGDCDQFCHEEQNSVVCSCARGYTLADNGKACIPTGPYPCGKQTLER
T4 sequence (P00750 36-562): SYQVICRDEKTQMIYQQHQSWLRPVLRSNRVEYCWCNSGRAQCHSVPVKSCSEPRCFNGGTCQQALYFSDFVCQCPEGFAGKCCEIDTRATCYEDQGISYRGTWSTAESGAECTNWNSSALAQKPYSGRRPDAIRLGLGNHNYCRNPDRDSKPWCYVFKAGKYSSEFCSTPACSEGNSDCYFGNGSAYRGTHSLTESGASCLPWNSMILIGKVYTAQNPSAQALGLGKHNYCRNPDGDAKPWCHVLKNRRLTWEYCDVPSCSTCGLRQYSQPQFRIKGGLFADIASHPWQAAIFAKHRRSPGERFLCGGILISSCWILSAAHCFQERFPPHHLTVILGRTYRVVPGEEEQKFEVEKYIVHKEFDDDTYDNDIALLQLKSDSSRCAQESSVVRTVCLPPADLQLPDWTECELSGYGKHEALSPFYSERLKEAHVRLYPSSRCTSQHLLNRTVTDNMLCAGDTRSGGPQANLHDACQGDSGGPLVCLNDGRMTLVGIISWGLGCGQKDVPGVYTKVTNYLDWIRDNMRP
T2 sequence (P00747 581-810 limits assumed): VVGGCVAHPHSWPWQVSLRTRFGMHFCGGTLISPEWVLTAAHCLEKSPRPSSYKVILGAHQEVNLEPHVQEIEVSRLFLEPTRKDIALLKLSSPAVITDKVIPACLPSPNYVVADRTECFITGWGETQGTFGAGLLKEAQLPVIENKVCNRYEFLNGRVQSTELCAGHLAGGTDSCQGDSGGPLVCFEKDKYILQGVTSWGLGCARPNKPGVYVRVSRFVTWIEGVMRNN
T2 sequence (P00747 97-580 partner limits assumed): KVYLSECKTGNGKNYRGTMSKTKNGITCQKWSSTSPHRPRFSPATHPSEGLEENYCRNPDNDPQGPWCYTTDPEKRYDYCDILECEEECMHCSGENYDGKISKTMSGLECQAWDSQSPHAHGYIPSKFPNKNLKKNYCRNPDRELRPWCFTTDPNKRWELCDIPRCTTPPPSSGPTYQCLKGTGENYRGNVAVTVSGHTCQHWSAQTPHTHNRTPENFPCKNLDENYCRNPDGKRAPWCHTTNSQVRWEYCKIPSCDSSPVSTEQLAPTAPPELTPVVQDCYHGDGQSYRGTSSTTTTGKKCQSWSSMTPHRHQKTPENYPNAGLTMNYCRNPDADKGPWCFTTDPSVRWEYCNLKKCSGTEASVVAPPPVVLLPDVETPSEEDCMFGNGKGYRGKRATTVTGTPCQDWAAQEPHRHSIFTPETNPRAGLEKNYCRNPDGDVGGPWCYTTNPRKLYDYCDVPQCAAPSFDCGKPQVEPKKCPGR
T3 sequence (P04070 212-450 limits assumed): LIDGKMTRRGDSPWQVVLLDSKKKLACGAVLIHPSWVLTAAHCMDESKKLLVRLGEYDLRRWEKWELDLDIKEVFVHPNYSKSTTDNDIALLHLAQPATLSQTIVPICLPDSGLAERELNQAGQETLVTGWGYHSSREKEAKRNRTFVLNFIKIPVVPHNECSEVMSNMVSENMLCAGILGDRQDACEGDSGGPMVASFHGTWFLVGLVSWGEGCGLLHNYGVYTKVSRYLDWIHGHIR
T3 sequence (P04070 43-197 partner limits assumed): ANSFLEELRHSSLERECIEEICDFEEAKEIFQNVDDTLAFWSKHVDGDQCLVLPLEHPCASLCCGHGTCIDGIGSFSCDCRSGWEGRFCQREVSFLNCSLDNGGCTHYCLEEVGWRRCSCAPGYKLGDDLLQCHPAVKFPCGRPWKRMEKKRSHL

Consider `COc1cc(-c2cc(=O)c3c(O)c(OC)c(OC)cc3o2)ccc1O` [CSL, 4,5-dihydroxy-3,6,7-trimethoxyflavone], for which the PT result in test [1] is recorded as “did not change”. The “Km value of FXa on S-2222” value in test [2] is “increase”. For the same compound, the “Vmax of FXa on S-2222” value in test [2] is listed as “decrease”. Moreover, in test [2], the “selectivity ratio (based on Ki values) for FXa compared to other enzymes examined” value is above 300. Moreover, the “slope of Michaelis–Menten plot” value in test [2] (CSL 10 μM, FXa on S-2222) turned out to be 0.568; in test [2] (CSL 20 μM, FXa on S-2222), 0.759. For the same compound, in test [2] (FXa on S-2222), the “inhibitory pattern (Lineweaver–Burk plot)” value is “mixed-type inhibitory pattern”. Further, the “Ratio = Ki enzyme/Ki Factor Xa” value in test [2] (Factor Xa) is 1; in test [3] it was above 100; in test [4], above 100; in test [5], above 100; in test [6], above 100. In addition, the inhibition constant Ki in test [2] (Factor Xa, chromogenic substrate S-2222, Dixon plot) was 3.71 µM and 3.7 µM; in test [3] it was above 300 µM; in test [4], above 300 µM; in test [5], above 300 µM; in test [6], above 300 µM. Besides, in test [7], the “FX activation by FVIIa” value was “inhibited FX activation in a concentration-dependent manner”.
